The results in this text go back to patent US20120238767A1, “ANTIOXIDANT INFLAMMATION MODULATORS: NOVEL DERIVATIVES OF OLEANOLIC ACID” (priority 2008, published 2012).

The test system of assay [1] is RAW264.7 macrophages. Nature of the assay: Cell viability (WST-1 reagent). It counts as cell-based, mouse. To be noted: RAW264.7, 20 ng/ml IFNγ. Here is the method:
(§1) FIGS. 1-11 and 22. Inhibition of NO Production. RAW264.7 macrophages were pre-treated with DMSO or drugs at various concentrations (nM) for 2 hours, then treated with 20 ng/ml IFNγ for 24 hours. NO concentration in media was determined using a Griess reagent system; cell viability was determined using WST-1 reagent. Nitric Oxide production and cell viability. RAW264.7 macrophages were pre-treated with DMSO or drugs for 2 hours, then treated with recombinant mouse IFNγ (Sigma) for 24 hours. NO concentration in media was determined using the Griess reagent system (Promega). Cell viability was determined using WST-1 reagent (Roche).
A general note: Formazan colour is commonly taken as a measure of viable cells.

Assay [2] relates to IFNγ-induced NO production in RAW264.7 macrophages. Nature of the assay: Suppression of IFNγ-induced NO production (Griess reagent). To be noted: RAW264.7, 20 ng/ml IFNγ for 24 hours, 2 hours pre-treatment. It counts as cell-based, mouse. Here is the method: as §1
A general note: Nitrite, measured by Griess reagent, commonly stands in for NO production.

The structures appear in SMILES notation.

In general, IC50 refers to the concentration at which inhibition is half-maximal.

`COC(=O)[C@]12CCC(C)(C)C[C@H]1[C@H]1C(=O)C=C3[C@@]4(C)C=C(F)C(=O)C(C)(C)[C@@H]4CC[C@@]3(C)[C@]1(C)CC2` [Compound 402-05, (4aS,6aR,6bS,8aR,12aR,14aR,14b5)-methyl-11-fluoro-2,2,6a,6b,9,9,12a-heptamethyl-10,14-dioxo-1,2,3,4,4a,5,6,6a,6b,7,8,8a,9,10,12a,14,14a,14b-octadecahydropicene-4a-carboxylate]: the IC50 in assay [1] and in assay [2] was more than 200 nM throughout.

Turning to `COC(=O)[C@]12CCC(C)(C)C[C@H]1[C@H]1C(=O)C=C3[C@@]4(C)C=C(c5nnn[nH]5)C(=O)C(C)(C)[C@@H]4CC[C@@]3(C)[C@]1(C)CC2` [Compound 402-06, (4aS,6aR,6bS,8aR,12aS,14aR,14bS)-methyl-2,2,6a,6b,9,9,12a-heptamethyl-10,14-dioxo-11-(1H-tetrazol-5-yl)-1,2,3,4,4a,5,6,6a,6b,7,8,8a,9,10,12a,14,14a,14b-octadecahydropicene-4a-carboxylate], the IC50 in assay [1] (Mus musculus) and in assay [2] (Mus musculus) was more than 200 nM in each case. For `COC(=O)[C@]12CCC(C)(C)C[C@H]1[C@H]1C(=O)C=C3[C@@]4(C)C=C(C(=O)NO)C(=O)C(C)(C)[C@@H]4CC[C@@]3(C)[C@]1(C)CC2` [Compound 402-07, (4aS,6aR,6bS,8aR,12aS,14aR,14b5)-methyl-11-(hydroxycarbamoyl)-2,2,6a,6b,9,9,12a-heptamethyl-10,14-dioxo-1,2,3,4,4a,5,6,6a,6b,7,8,8a,9,10,12a,14,14a,14b-octadecahydropicene-4a-carboxylate], the 50% inhibitory concentration (IC50) in assay [1] (Mus musculus) and in assay [2] (Mus musculus) was more than 200 nM in each case.

In the case of `COC(=O)[C@]12CCC(C)(C)C[C@H]1[C@H]1C(=O)C=C3[C@@]4(C)C=C(C(=O)NS(C)(=O)=O)C(=O)C(C)(C)[C@@H]4CC[C@@]3(C)[C@]1(C)CC2` [Compound 402-08, (4aS,6aR,6bS,8aR,12aS,14aR,14bS)-methyl-2,2,6a,6b,9,9,12a-heptamethyl-11-(methylsulfonylcarbamoyl)-10,14-dioxo-1,2,3,4,4a,5,6,6a,6b,7,8,8a,9,10,12a,14,14a,14b-octadecahydropicene-4a-carboxylate], the 50% inhibitory concentration (IC50) was more than 200 nM in assay [1] (Mus musculus) and 62 nM in assay [2] (Mus musculus). The corresponding values for `CC1(C)CC[C@]2(C(=O)NO)CC[C@]3(C)[C@H](C(=O)C=C4[C@@]5(C)C=C(C#N)C(=O)C(C)(C)[C@@H]5CC[C@]43C)[C@@H]2C1` [Compound 402-09, (4aS,6aR,6bS,8aR,12aS,14aR,14bS)-11-cyano-N-hydroxy-2,2,6a,6b,9,9,12a-heptamethyl-10,14-dioxo-1,2,3,4,4a,5,6,6a,6b,7,8,8a,9,10,12a,14,14a,14b-octadecahydropicene-4a-carboxamide] are more than 200 nM and 4.2 nM. Consider `CONC(=O)[C@]12CCC(C)(C)C[C@H]1[C@H]1C(=O)C=C3[C@@]4(C)C=C(C#N)C(=O)C(C)(C)[C@@H]4CC[C@@]3(C)[C@]1(C)CC2` [Compound 402-10, (4aS,6aR,6bS,8aR,12aS,14aR,14bS)-11-cyano-N-methoxy-2,2,6a,6b,9,9,12a-heptamethyl-10,14-dioxo-1,2,3,4,4a,5,6,6a,6b,7,8,8a,9,10,12a,14,14a,14b-octadecahydropicene-4a-carboxamide], for which the IC50 in assay [1] (Mus musculus) was more than 200 nM; in assay [2] (Mus musculus) it was 2.3 nM.

Turning to `CC1(C)CC[C@]2(C(=O)N=[N+]=[N-])CC[C@]3(C)[C@H](C(=O)C=C4[C@@]5(C)C=C(C#N)C(=O)C(C)(C)[C@@H]5CC[C@]43C)[C@@H]2C1` [Compound 402-11, (4aS,6aR,6bS,8aR,12aS,14aR,14bS)-11-cyano-2,2,6a,6b,9,9,12a-heptamethyl-10,14-dioxo-1,2,3,4,4a,5,6,6a,6b,7,8,8a,9,10,12a,14,14a,14b-octadecahydropicene-4a-carbonyl azide], the figures for the half-inhibitory concentration (IC50) in assay [1] (Mus musculus) and in assay [2] (Mus musculus) were 150 nM and 2.5 nM, respectively.

Turning to `COC(=O)[C@]12CCC(C)(C)C[C@H]1[C@H]1C(=O)C=C3[C@@]4(C)C(C)=C(C#N)C(=O)C(C)(C)[C@@H]4CC[C@@]3(C)[C@]1(C)CC2` [Compound 402-22, (4 aS,6aR,6bS,8aR,12 aR,14 aR,14bS)-methyl-11-cyano-2,2,6a,6b,9,9,12,12a-octamethyl-10,14-dioxo-1,2,3,4,4a,5,6,6a,6b,7,8,8a,9,10,12a,14,14a,14b-octadecahydropicene-4a-carboxylate], the IC50 in assay [1] (Mus musculus) and in assay [2] (Mus musculus) was more than 200 nM throughout. As for `CC1(C)CC[C@]2(C(=O)NCCO)CC[C@]3(C)[C@H](C(=O)C=C4[C@@]5(C)C=C(C#N)C(=O)C(C)(C)[C@@H]5CC[C@]43C)[C@@H]2C1` [Compound 402-40, (4aS,6aR,6bS,8aR,12aS,14aR,14bS)-11-cyano-N-(2-hydroxyethyl)-2,2,6a,6b,9,9,12a-heptamethyl-10,14-dioxo-1,2,3,4,4a,5,6,6a,6b,7,8,8a,9,10,12a,14,14a,14b-octadecahydropicene-4a-carboxamide], the figures for the IC50 in assay [1] (Mus musculus) and in assay [2] (Mus musculus) were 75 nM and 17 nM, respectively. For the molecule `COC(=O)[C@]12CCC(C)(C)C[C@H]1[C@H]1C(=O)C=C3[C@@]4(C)CC(C#N)=C(OC(C)=O)C(C)(C)[C@@H]4CC[C@@]3(C)[C@]1(C)CC2` [Compound 402-47, (4aS,6aR,6bS,8aR,12aS,14aR,14bS)-methyl-10-acetoxy-11-cyano-2,2,6a,6b,9,9,12a-heptamethyl-14-oxo-1,2,3,4,4a,5,6,6a,6b,7,8,8a,9,12,12a,14,14a,14b-octadecahydropicene-4a-carboxylate], the IC50 in assay [1] (Mus musculus) and in assay [2] (Mus musculus) was more than 200 nM each time. For `CC1(C)CC[C@]2(C(=O)F)CC[C@]3(C)[C@H](C(=O)C=C4[C@@]5(C)C=C(C#N)C(=O)C(C)(C)[C@@H]5CC[C@]43C)[C@@H]2C1` [Compound 402-55, (4aS,6aR,6bS,8aR,12aS,14aR,14bS)-11-cyano-2,2,6a,6b,9,9,12a-heptamethyl-10,14-dioxo-1,2,3,4,4a,5,6,6a,6b,7,8,8a,9,10,12a,14,14a,14b-octadecahydropicene-4a-carbonyl fluoride], the concentration for half-maximal inhibition (IC50) in assay [1] (Mus musculus) was 100 nM; in assay [2] (Mus musculus) it was approximately 3 nM.

As for `COC(=O)[C@]12CCC(C)(C)C[C@H]1[C@H]1C(=O)C=C3[C@@]4(C)C=C(C#N)C(=O)[C@](C)(CO)[C@@H]4CC[C@@]3(C)[C@]1(C)CC2` [Compound 63301, (4aS,6aR,6bS,8aR,9S,12aS,14aR,14b5)-methyl 11-cyano-9-(hydroxymethyl)-2,2,6a,6b,9,12a-hexamethyl-10,14-dioxo-1,2,3,4,4a,5,6,6a,6b,7,8,8a,9,10,12a,14,14a,14b-octadecahydropicene-4a-carboxylate], the figures for the IC50 in assay [1] (Mus musculus) and in assay [2] (Mus musculus) were approximately 120 nM and approximately 3.2 nM, respectively. For `COCOC[C@@]1(C)C(=O)C(C#N)=C[C@]2(C)C3=CC(=O)[C@@H]4[C@@H]5CC(C)(C)CC[C@]5(C(=O)OC)CC[C@@]4(C)[C@]3(C)CC[C@@H]12` [Compound 63302, (4aS,6aR,6bS,8aR,9S,12aS,14aR,14bS)-methyl 11-cyano-9-((methoxymethoxy)methyl)-2,2,6a,6b,9,12a-hexamethyl-10,14-dioxo-1,2,3,4,4a,5,6,6a,6b,7,8,8a,9,10,12a,14,14a,14b-octadecahydropicene-4a-carboxylate] the same measures were approximately 100 nM and approximately 18 nM.

For `COC(=O)[C@]12CCC(C)(C)C[C@H]1[C@H]1C(=O)C=C3[C@@]4(C)C=C(C#N)C(=O)C(C)(C)[C@@H]4[C@H](O)C[C@@]3(C)[C@]1(C)CC2` [Compound 63307, (4aS,6aR,6bS,8R,8aR,12aS,14aR,14bS)-methyl 11-cyano-8-hydroxy-2,2,6a,6b,9,9,12a-heptamethyl-10,14-dioxo-1,2,3,4,4a,5,6,6a,6b,7,8,8a,9,10,12a,14,14a,14b-octadecahydropicene-4a-carboxylate], the IC50 was more than 200 nM in assay [1] (Mus musculus) and approximately 60 nM in assay [2] (Mus musculus). For `COC(=O)[C@]12CCC(C)(C)C[C@H]1[C@H]1C(=O)C=C3[C@@]4(C)C=C(C#N)C(=O)C(C)(C)[C@@H]4C(=O)C[C@@]3(C)[C@]1(C)CC2` [Compound 63309, (4aS,6aR,6bS,8aR,12aS,14aR,14bS)-methyl 11-cyano-2,2,6a,6b,9,9,12a-heptamethyl-8,10,14-trioxo-1,2,3,4,4a,5,6,6a,6b,7,8,8a,9,10,12a,14,14a,14b-octadecahydropicene-4a-carboxylate] the same measures were more than 200 nM and approximately 12 nM. For `COC(=O)[C@]12CCC(C)(C)C[C@H]1[C@H]1C(=O)C=C3[C@@]4(C)[C@@H](O)[C@](O)(C#N)C(=O)C(C)(C)[C@@H]4CC[C@@]3(C)[C@]1(C)CC2` [Compound 63316, (4aS,6aR,6bS,8aR,11R,12R,12aS,14aR,14bS)-methyl 11-cyano-11,12-dihydroxy-2,2,6a,6b,9,9,12a-heptamethyl-10,14-dioxo-1,2,3,4,4a,5,6,6a,6b,7,8,8a,9,10,11,12,12a,14,14a,14b-icosahydropicene-4a-carboxylate] the same measures were more than 200 nM and approximately 80 nM. For `COC(=O)[C@]12CCC(C)(C)C[C@H]1[C@H]1C(=O)C=C3[C@@]4(C)C=C(C(F)(F)F)C(=O)C(C)(C)[C@@H]4CC[C@@]3(C)[C@]1(C)CC2` [Compound 63320, (4aS,6aR,6bS,8aR,12aS,14aR,14bS)-methyl 2,2,6a,6b,9,9,12a-heptamethyl-10,14-dioxo-11-(trifluoromethyl)-1,2,3,4,4a,5,6,6a,6b,7,8,8a,9,10,12a,14,14a,14b-octadecahydropicene-4a-carboxylate], the IC50 in assay [2] (Mus musculus) is approximately 12 nM.
